Measured values: patent US7276528B2, “Compounds for the inhibition of nitric oxide synthase” (AstraZeneca AB, priority 2001, dated 2007)
Structures can show the parent of a compound that is named as a salt.

Legend:
Type in all cases: biochemical
Conditions in all cases: recombinant human enzyme expressed in E. coli; 60 min pre-incubation with NADPH; 3 μM [3H]arginine
[1] = target: T1, Recombinant human nNOS (Homo sapiens, UniProt P29475); assay: Screen 2: recombinant human NO synthase inhibition, L-[3H]citrulline formation (nNOS)
T1 construct: made in house; host or cells: E. coli (lysate)
T1 sequence (P29475 whole entry): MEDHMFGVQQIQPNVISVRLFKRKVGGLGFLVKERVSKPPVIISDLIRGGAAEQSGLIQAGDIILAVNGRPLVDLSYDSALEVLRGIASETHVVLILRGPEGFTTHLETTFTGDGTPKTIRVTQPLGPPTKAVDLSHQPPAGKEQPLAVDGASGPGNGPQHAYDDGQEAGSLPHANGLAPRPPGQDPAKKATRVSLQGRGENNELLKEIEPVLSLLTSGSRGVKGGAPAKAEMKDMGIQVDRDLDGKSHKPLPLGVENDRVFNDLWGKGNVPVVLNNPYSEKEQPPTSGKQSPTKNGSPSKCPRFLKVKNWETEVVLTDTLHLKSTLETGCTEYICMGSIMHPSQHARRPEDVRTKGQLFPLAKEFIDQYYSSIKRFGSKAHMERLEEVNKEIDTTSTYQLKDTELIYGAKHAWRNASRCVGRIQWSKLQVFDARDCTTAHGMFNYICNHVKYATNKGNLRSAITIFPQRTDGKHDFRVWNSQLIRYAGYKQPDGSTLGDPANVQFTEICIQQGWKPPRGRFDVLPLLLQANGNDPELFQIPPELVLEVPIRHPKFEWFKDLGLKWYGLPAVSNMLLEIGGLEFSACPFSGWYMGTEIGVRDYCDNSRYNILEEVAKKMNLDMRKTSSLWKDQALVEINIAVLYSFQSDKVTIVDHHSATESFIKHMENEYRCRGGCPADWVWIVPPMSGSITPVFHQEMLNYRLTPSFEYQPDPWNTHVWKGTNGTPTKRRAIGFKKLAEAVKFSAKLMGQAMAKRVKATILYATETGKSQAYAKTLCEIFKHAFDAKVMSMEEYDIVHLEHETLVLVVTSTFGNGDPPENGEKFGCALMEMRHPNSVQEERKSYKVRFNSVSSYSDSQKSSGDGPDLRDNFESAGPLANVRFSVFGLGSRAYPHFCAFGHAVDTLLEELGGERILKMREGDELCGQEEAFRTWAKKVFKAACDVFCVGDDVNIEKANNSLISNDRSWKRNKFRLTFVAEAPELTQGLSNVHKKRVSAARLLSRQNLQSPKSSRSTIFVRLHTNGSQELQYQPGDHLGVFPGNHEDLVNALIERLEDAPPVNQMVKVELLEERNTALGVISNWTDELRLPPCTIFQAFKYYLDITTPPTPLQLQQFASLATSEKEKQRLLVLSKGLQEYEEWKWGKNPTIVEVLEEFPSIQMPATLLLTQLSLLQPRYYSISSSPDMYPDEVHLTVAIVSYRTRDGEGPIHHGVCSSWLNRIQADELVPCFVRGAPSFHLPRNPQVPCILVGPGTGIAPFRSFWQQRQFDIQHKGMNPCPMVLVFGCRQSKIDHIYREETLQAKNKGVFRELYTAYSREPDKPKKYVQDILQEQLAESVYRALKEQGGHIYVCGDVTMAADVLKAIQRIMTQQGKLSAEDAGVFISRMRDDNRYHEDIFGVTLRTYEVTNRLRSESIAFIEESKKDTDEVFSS
Procedure: (§1) Recombinant human NO synthases (iNOS, eNOS & nNOS) were expressed in E. coli and lysates were prepared in Hepes buffer (pH 7.4) containing co-factors (FAD, FMN, H4B), protease inhibitors, lysozyme and the detergent, CHAPS. These preparations were used, at suitable dilution, to assess inhibition of the various isoforms. Inhibition of NOS was determined by measuring the formation of L-[^3H]citrulline from L-[^3H]arginine using an adaptation of the method of Förstermann et al. Enzyme assays were performed in the presence of 3 μM [^3H]arginine, 1 mM NADPH and other co-factors required to support NOS activity (FAD, FMN, H4B, calmodulin, Ca^2+). […] Incubations continued for a further 60 min before the assays were quenched and [^3H]citrulline separated from unreacted substrate by chromatography on Dowex-50 W resin in a 96-well format.

[2] = target: T2, Recombinant human iNOS (Homo sapiens, UniProt P35228); assay: Screen 2: recombinant human NO synthase inhibition, L-[3H]citrulline formation (iNOS)
T2 construct: made in house; host or cells: E. coli (lysate)
T2 sequence (P35228 whole entry): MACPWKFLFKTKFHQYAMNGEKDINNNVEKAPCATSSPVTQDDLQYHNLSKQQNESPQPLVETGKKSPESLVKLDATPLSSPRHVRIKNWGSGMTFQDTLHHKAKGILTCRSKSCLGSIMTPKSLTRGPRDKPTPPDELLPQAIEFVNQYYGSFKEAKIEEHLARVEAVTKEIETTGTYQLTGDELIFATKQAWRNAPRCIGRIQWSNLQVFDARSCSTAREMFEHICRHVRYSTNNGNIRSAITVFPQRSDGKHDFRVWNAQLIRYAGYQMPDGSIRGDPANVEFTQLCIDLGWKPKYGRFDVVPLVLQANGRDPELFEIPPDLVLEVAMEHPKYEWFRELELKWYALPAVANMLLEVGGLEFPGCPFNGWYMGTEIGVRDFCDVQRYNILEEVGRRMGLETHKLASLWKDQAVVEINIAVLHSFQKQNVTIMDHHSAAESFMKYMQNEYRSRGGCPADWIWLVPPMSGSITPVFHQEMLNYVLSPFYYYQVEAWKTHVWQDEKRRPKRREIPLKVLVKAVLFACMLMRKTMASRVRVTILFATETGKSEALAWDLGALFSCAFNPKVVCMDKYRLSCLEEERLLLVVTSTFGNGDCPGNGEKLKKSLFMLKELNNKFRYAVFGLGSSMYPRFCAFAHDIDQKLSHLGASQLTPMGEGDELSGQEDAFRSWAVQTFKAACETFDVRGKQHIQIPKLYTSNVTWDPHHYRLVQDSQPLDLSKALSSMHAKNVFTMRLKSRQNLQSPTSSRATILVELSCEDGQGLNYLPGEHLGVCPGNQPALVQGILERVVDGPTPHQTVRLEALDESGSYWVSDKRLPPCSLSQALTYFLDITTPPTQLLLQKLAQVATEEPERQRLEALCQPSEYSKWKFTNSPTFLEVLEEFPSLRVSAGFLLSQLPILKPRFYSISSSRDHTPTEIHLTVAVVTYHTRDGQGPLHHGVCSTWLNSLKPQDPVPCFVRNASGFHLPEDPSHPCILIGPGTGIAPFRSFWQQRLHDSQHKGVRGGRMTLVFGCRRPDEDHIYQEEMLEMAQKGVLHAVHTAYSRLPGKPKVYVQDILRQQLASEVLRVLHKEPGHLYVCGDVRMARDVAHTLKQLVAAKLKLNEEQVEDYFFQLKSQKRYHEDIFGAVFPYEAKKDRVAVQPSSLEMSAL
Procedure: as §1

[3] = target: T3, Recombinant human eNOS (Homo sapiens, UniProt P29474); assay: Screen 2: recombinant human NO synthase inhibition, L-[3H]citrulline formation (eNOS)
T3 construct: made in house; host or cells: E. coli (lysate)
T3 sequence (P29474 whole entry): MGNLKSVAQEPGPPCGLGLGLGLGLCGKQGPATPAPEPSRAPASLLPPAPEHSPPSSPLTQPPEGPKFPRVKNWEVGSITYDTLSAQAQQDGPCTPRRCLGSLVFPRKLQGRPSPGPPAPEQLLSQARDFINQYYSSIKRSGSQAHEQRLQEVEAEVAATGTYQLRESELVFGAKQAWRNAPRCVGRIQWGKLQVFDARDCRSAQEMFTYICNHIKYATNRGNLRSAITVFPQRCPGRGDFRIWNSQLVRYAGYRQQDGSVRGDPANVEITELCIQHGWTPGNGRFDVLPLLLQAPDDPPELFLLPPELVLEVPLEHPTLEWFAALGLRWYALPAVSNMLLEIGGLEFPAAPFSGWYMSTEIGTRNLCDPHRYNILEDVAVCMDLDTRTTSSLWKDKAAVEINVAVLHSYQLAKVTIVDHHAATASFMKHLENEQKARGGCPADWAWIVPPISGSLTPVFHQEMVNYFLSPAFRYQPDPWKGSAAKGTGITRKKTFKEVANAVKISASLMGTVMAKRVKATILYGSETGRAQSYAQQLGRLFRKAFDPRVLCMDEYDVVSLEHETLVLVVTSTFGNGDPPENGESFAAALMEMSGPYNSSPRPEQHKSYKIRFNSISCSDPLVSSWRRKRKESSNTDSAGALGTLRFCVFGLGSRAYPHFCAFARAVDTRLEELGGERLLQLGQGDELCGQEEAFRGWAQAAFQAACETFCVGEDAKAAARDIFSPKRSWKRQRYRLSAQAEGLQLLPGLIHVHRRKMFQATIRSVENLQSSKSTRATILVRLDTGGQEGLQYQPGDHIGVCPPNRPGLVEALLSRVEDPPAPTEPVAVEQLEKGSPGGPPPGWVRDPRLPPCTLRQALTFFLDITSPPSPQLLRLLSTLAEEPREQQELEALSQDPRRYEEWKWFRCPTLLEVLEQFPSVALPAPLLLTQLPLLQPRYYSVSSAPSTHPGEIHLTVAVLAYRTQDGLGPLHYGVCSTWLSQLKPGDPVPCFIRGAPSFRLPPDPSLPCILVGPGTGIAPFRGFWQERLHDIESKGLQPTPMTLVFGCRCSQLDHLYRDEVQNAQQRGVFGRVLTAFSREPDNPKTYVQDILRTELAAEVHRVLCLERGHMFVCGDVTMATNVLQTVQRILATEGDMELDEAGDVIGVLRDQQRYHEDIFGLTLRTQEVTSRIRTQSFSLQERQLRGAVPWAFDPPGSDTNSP

IC50 [1] [µM]	IC50 [2] [µM]	IC50 [3] [µM]	SMILES
0.2	0.09	44	CN(C)Cc1cccc(Oc2cc(Cl)ccc2C#N)c1 [Example 25, 4-Chloro-2-[3-(dimethylaminomethyl)phenoxy]benzonitrile fumarate]
0.0048	0.0029	0.34	CNCc1cccc(Oc2cc(Cl)ccc2C#N)c1 [Example 10, 4-Chloro-2-(3-methylaminomethyl-phenoxy)-benzonitrile fumarate]
0.039	0.16	5.4	CNCc1ccc(Oc2cc(Cl)ccc2C#N)c2ccccc12 [Example 24, 4-Chloro-2-[4-(methylaminomethyl)naphthalen-1-yloxy]benzonitrile fumarate]
